Data: PMC7413254 (Nature Communications, 2020)
Like-named read-outs stand apart in the source and are kept apart here.

Key:
[1] = system: non-expressing oocytes; experiment: cells; type: cell-based, Xenopus laevis; conditions: non-expressing oocytes, total [3H]CQ transport, normalised to the oocyte type control
How it was run: (§1)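 Using pH 5.5 ND96 at 27.5 °C, uptake is followed for 1.5 h, stopped with ice-cold buffer, and quantified as accumulated radioactivity per oocyte after SDS lysis.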

[2] = biological target: T1, PfCRT^3D7 (Plasmodium falciparum, UniProt Q8IBZ9); experiment: cell-based; type: cell-based; conditions: PfCRT3D7 oocytes, total [3H]CQ transport, normalised to the oocyte type control
T1 sequence (Q8IBZ9 59-398): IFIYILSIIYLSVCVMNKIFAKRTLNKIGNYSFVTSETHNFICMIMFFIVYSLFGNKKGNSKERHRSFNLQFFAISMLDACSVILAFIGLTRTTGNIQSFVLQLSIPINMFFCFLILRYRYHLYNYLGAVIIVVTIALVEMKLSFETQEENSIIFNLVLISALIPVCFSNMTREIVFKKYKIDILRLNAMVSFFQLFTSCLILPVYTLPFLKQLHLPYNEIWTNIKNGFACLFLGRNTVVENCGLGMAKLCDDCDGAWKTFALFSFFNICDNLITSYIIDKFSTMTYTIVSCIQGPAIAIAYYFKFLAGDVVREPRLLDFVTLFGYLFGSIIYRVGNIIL
How it was run: as §1

[3] = biological target: T2, PfCRT^Dd2 (Plasmodium falciparum, UniProt Q9N623, A220S/I356T/K76T/M74I/N326S/N75E/Q271E/R371I); experiment: [3H]CQ uptake into Xenopus oocytes, cis-inhibition by unlabelled solute; type: cell-based; conditions: PfCRTDd2 oocytes, background [3H]CQ accumulation subtracted, normalised to oocyte type control
T2 sequence (Q9N623 whole entry A220S/I356T/K76T/M74I/N326S/N75E/Q271E/R371I): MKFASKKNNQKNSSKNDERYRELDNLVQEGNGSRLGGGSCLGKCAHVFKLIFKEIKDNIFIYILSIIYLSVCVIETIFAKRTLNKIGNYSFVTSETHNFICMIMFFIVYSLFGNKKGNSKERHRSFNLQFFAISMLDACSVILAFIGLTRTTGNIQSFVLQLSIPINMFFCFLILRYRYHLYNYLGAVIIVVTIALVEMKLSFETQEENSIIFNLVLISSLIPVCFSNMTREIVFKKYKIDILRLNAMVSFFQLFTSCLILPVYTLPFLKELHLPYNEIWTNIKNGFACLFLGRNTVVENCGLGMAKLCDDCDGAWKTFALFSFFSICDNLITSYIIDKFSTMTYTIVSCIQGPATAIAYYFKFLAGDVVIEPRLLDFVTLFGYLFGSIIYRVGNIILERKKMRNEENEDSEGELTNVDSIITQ
How it was run: as §1

[4] = biological target: T3, PfCRT^Ecu1110 (Plasmodium falciparum, UniProt Q9N623, A220S/I356L/K76T/N326D); experiment: as above; type: cell-based; conditions: for Uptake of [3H]CQ (% PfCRTEcu1110 control), cis-inhibition / PfCRT-mediated [3H]CQ transport, cis-inhibition (% PfCRTEcu1110 control): PfCRTEcu1110 oocytes; for Uptake of [3H]CQ (% PfCRTEcu1110 control), cis-inhibition: total [3H]CQ transport, normalised to the oocyte type control; for PfCRT-mediated [3H]CQ transport, cis-inhibition (% PfCRTEcu1110 control): background [3H]CQ accumulation subtracted, normalised to oocyte type control; for [3H]CQ transport (% PfCRTEcu1110 control), cis-inhibition, PfCRTEcu1110: PfCRT-mediated component (background subtracted), sheet title says normalised to PfCRTDd2 control, mean ± SEM, SEM
T3 sequence (Q9N623 whole entry A220S/I356L/K76T/N326D): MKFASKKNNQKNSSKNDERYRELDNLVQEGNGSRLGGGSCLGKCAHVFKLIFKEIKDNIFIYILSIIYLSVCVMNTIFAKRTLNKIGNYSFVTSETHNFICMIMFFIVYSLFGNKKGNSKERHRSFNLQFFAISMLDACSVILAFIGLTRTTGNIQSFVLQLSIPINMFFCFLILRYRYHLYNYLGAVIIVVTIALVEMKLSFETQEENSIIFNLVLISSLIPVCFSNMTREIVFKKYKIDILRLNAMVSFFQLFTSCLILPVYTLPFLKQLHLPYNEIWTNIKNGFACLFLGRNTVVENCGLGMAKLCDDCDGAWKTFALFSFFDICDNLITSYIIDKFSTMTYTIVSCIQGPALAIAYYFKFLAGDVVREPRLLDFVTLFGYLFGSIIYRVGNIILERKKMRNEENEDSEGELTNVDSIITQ
How it was run: as §1

[5] = system: non-expressing oocytes; type: cell-based, Xenopus laevis; conditions: non-expressing oocytes, total [3H]CQ transport, normalised to the oocyte type control
How it was run: (§2)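 Oocytes (ten per treatment, ≥4 independent frogs/days) were preloaded by injecting VF-6 in 25 nL ND96 at pH 5.0, 5.5, 6.0 or 7.0, or Na^+-free choline buffer, then uptake run 1.5 h, 27.5 °C, ND96 pH 5.5 by default. Internal concentrations assumed ~400 nL oocyte volume.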

[6] = biological target: T1, PfCRT^3D7; experiment: cell-based; type: cell-based; conditions: PfCRT3D7 oocytes; for Uptake of [3H]CQ (% PfCRT3D7 control), trans-stimulation: total [3H]CQ transport, normalised to the oocyte type control; for PfCRT-mediated [3H]CQ transport, trans-stimulation (% PfCRT3D7 control): normalised to oocyte type control
How it was run: as §2

[7] = biological target: T2, PfCRT^Dd2; experiment: cell-based; type: cell-based; conditions: for Uptake of [3H]CQ (% PfCRTDd2 control), trans-stimulation / PfCRT-mediated [3H]CQ transport, trans-stimulation (% PfCRTDd2 control): PfCRTDd2 oocytes; for Uptake of [3H]CQ (% PfCRTDd2 control), trans-stimulation: total [3H]CQ transport, normalised to the oocyte type control; for PfCRT-mediated [3H]CQ transport, trans-stimulation (% PfCRTDd2 control): normalised to oocyte type control; for [3H]CQ transport (% PfCRTDd2 control), trans-stimulation, PfCRTDd2: PfCRT-mediated component (background subtracted), mean ± SEM, SEM
How it was run: as §2

[8] = biological target: T3, PfCRT^Ecu1110; experiment: cell-based; type: cell-based; conditions: for Uptake of [3H]CQ (% PfCRTEcu1110 control), trans-stimulation / PfCRT-mediated [3H]CQ transport, trans-stimulation (% PfCRTEcu1110 control): PfCRTEcu1110 oocytes; for Uptake of [3H]CQ (% PfCRTEcu1110 control), trans-stimulation: total [3H]CQ transport, normalised to the oocyte type control; for PfCRT-mediated [3H]CQ transport, trans-stimulation (% PfCRTEcu1110 control): normalised to oocyte type control; for [3H]CQ transport (% PfCRTDd2 control), trans-stimulation, PfCRTEcu1110: PfCRT-mediated component (background subtracted), sheet title says normalised to PfCRTDd2 control, mean ± SEM, SEM
How it was run: as §2

[9] = biological target: T4, PfNT1 (Plasmodium falciparum, UniProt Q8IDM6); experiment: cell-based; type: cell-based; conditions: PfNT1 oocytes, total [3H]CQ transport, normalised to the oocyte type control
T4 construct: expressed in transfected cells; host or cells: Xenopus laevis oocytes (stage V-VI), cRNA-injected
T4 sequence (Q8IDM6 whole entry): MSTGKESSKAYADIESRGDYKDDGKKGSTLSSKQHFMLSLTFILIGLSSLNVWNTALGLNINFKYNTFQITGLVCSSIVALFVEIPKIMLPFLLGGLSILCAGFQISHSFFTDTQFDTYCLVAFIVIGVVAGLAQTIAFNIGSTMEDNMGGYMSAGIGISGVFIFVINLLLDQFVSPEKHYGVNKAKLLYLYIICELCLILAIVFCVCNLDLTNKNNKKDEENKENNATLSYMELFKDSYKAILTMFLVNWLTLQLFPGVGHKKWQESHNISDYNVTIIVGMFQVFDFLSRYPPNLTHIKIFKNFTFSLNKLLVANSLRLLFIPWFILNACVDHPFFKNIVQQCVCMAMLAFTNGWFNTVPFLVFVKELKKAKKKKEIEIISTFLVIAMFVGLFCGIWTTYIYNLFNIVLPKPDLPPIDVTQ
How it was run: as §2

[10] = [test solute]i = 45 mM (30 mM for some solutes due to solubility)
[11] = [test solute]i = 5 mM (intracellular)
[12] = [test solute]i = 45 mM (intracellular; 30 mM for some solutes due to solubility)
[13] = [test solute]i = 5 mM (injected)

PEEK [PK-4]
Uptake of [3H]CQ (% non-expressing oocyte control), cis-inhibition ([1]; [test solute] = 0.5 mM): 100 ± 5.8 % non-expressing oocyte control | Uptake of [3H]CQ (% non-expressing oocyte control), cis-inhibition ([1]; [test solute] = 1 mM): 99 ± 5.3 % non-expressing oocyte control | Uptake of [3H]CQ (% PfCRT3D7 control), cis-inhibition ([2]; [test solute] = 0.5 mM): 102 ± 4.4 % PfCRT3D7 control | Uptake of [3H]CQ (% PfCRT3D7 control), cis-inhibition ([2]; [test solute] = 1 mM): 99 ± 4.7 % PfCRT3D7 control | Uptake of [3H]CQ (% PfCRT3D7 control), cis-inhibition ([2]; [test solute] = 2 mM): 98 ± 3.7 % PfCRT3D7 control | PfCRT-mediated [3H]CQ transport, cis-inhibition (% PfCRTDd2 control) ([3]; [test solute] = 0.5 mM): 57 ± 2.0 % PfCRTDd2 control | PfCRT-mediated [3H]CQ transport, cis-inhibition (% PfCRTDd2 control) ([3]; [test solute] = 1 mM): 44 ± 2.1 % PfCRTDd2 control | PfCRT-mediated [3H]CQ transport, cis-inhibition (% PfCRTDd2 control) ([3]; [test solute] = 2 mM): 37 ± 2.2 % PfCRTDd2 control | Uptake of [3H]CQ (% PfCRTEcu1110 control), cis-inhibition ([4]; [test solute] = 0.5 mM): 51 ± 3.2 % PfCRTEcu1110 control | Uptake of [3H]CQ (% PfCRTEcu1110 control), cis-inhibition ([4]; [test solute] = 1 mM): 47 ± 3.2 % PfCRTEcu1110 control | Uptake of [3H]CQ (% PfCRTEcu1110 control), cis-inhibition ([4]; [test solute] = 2 mM): 33 ± 2.6 % PfCRTEcu1110 control | PfCRT-mediated [3H]CQ transport, cis-inhibition (% PfCRTEcu1110 control) ([4]; [test solute] = 0.5 mM): 46 ± 1.6 % PfCRTEcu1110 control | PfCRT-mediated [3H]CQ transport, cis-inhibition (% PfCRTEcu1110 control) ([4]; [test solute] = 1 mM): 42 ± 4.2 % PfCRTEcu1110 control | PfCRT-mediated [3H]CQ transport, cis-inhibition (% PfCRTEcu1110 control) ([4]; [test solute] = 2 mM): 27 ± 1.9 % PfCRTEcu1110 control | [3H]CQ transport (% PfCRTEcu1110 control), cis-inhibition, PfCRTEcu1110 ([4]; [test solute] = 0.5 mM): 14 ± 0.2 % PfCRTEcu1110 control | [3H]CQ transport (% PfCRTEcu1110 control), cis-inhibition, PfCRTEcu1110 ([4]; [test solute] = 1 mM): 13 ± 0.4 % PfCRTEcu1110 control | [3H]CQ transport (% PfCRTEcu1110 control), cis-inhibition, PfCRTEcu1110 ([4]; [test solute] = 2 mM): 9.0 ± 0.04 % PfCRTEcu1110 control | Uptake of [3H]CQ (% non-expressing oocyte control), trans-stimulation ([5]; [test solute]i = 5 mM): 100 ± 1.8 % non-expressing oocyte control | Uptake of [3H]CQ (% non-expressing oocyte control), trans-stimulation [5, 10]: 99 ± 1.5 % non-expressing oocyte control | Uptake of [3H]CQ (% PfCRT3D7 control), trans-stimulation ([6]; [test solute]i = 5 mM): 99 ± 2.1 % PfCRT3D7 control | Uptake of [3H]CQ (% PfCRT3D7 control), trans-stimulation [6, 10]: 100 ± 1.7 % PfCRT3D7 control | PfCRT-mediated [3H]CQ transport, trans-stimulation (% PfCRT3D7 control) [6, 11]: 97 ± 3.8 % PfCRT3D7 control | PfCRT-mediated [3H]CQ transport, trans-stimulation (% PfCRT3D7 control) [6, 12]: 98 ± 3.2 % PfCRT3D7 control | Uptake of [3H]CQ (% PfCRTDd2 control), trans-stimulation ([7]; [test solute]i = 5 mM): 97 ± 2.1 % PfCRTDd2 control | Uptake of [3H]CQ (% PfCRTDd2 control), trans-stimulation [7, 10]: 97 ± 3.2 % PfCRTDd2 control | PfCRT-mediated [3H]CQ transport, trans-stimulation (% PfCRTDd2 control) [7, 11]: 95 ± 4.4 % PfCRTDd2 control | PfCRT-mediated [3H]CQ transport, trans-stimulation (% PfCRTDd2 control) [7, 12]: 100 ± 4.3 % PfCRTDd2 control | [3H]CQ transport (% PfCRTDd2 control), trans-stimulation, PfCRTDd2 [7, 13]: 95 ± 4.4 % PfCRTDd2 control | [3H]CQ transport (% PfCRTDd2 control), trans-stimulation, PfCRTDd2 [7, 10]: 100 ± 4.3 % PfCRTDd2 control | Uptake of [3H]CQ (% PfCRTEcu1110 control), trans-stimulation ([8]; [test solute]i = 5 mM): 99 ± 1.4 % PfCRTEcu1110 control | Uptake of [3H]CQ (% PfCRTEcu1110 control), trans-stimulation [8, 10]: 97 ± 2.4 % PfCRTEcu1110 control | PfCRT-mediated [3H]CQ transport, trans-stimulation (% PfCRTEcu1110 control) [8, 11]: 97 ± 2.7 % PfCRTEcu1110 control | PfCRT-mediated [3H]CQ transport, trans-stimulation (% PfCRTEcu1110 control) [8, 12]: 95 ± 3.5 % PfCRTEcu1110 control | [3H]CQ transport (% PfCRTDd2 control), trans-stimulation, PfCRTEcu1110 [8, 13]: 29 ± 1.1 % PfCRTEcu1110 control | [3H]CQ transport (% PfCRTDd2 control), trans-stimulation, PfCRTEcu1110 [8, 10]: 29 ± 1.2 % PfCRTEcu1110 control | Uptake of [3H]CQ (% PfNT1 control), trans-stimulation ([9]; [test solute]i = 5 mM): 99 ± 2.1 % PfNT1 control | Uptake of [3H]CQ (% PfNT1 control), trans-stimulation [9, 10]: 100 ± 2.7 % PfNT1 control
